In ChEMBL document CHEMBL3045244, “Design and synthesis of novel piperazine unit condensed 2,6-diarylpiperidin-4-one derivatives as antituberculosis and antimicrobial agents” (2012):
In brackets after ≈: the same amount, converted by molar mass. Activity calls are given as the source filed them. No cut-off for these calls is given here.

Columns and labels:
Aspergillus flavus [1] = assay: Antifungal activity against Aspergillus flavus ATCC 470 after 72 to 96 hr by two-fold serial dilution method; assay type: functional
Escherichia coli = assay: Antibacterial activity against Escherichia coli ATCC 25840 after 24 hr by two-fold serial dilution method; assay type: functional; settings: ATCC 25840, 24 h
Salmonella typhi [2] = assay: Antibacterial activity against Salmonella enterica subsp. enterica serovar Typhi ATCC 24930 at 200 ug/ml after 24 hr by two-fold serial dilution method; assay type: functional, organism-based
Cryptococcus neoformans = assay: Antifungal activity against Cryptococcus neoformans ATCC 3315 after 72 to 96 hr by two-fold serial dilution method; assay type: functional
Staphylococcus aureus [3] = assay: Antibacterial activity against Staphylococcus aureus ATCC 25833 after 24 hr by two-fold serial dilution method; assay type: functional; settings: ATCC 25833, 24 h
Rhizopus = assay: Antifungal activity against Rhizopus sp. ATCC 2920 after 72 to 96 hr by two-fold serial dilution method; assay type: functional
Bacillus subtilis [4] = assay: Antibacterial activity against Bacillus subtilis ATCC 461 after 24 hr by two-fold serial dilution method; assay type: functional; settings: ATCC 461, 24 h
[5] = test system: Mycobacterium tuberculosis; assay: Antituberculosis activity against Mycobacterium tuberculosis H37Rv ATCC 27294 after 21 days by BACTEC based radiometric respiratory technique; assay type: functional; settings: H37Rv ATCC 27294, 504 h
Klebsiella pneumoniae [6] = assay: Antibacterial activity against Klebsiella pneumoniae ATCC 15499 after 24 hr by two-fold serial dilution method; assay type: functional; settings: ATCC 15499, 24 h
Candida albicans [7] = assay: Antifungal activity against Candida albicans ATCC 3130 after 72 to 96 hr by two-fold serial dilution method; assay type: functional
Aspergillus niger [8] = assay: Antifungal activity against Aspergillus niger ATCC 591 after 72 to 96 hr by two-fold serial dilution method; assay type: functional
Salmonella typhi [9] = assay: Antibacterial activity against Salmonella enterica subsp. enterica serovar Typhi ATCC 24930 after 24 hr by two-fold serial dilution method; assay type: functional; settings: ATCC 24930, 24 h
Aspergillus flavus [10] = assay: Antifungal activity against Aspergillus flavus ATCC 470 at 200 ug/ml after 72 to 96 hr by two-fold serial dilution method; assay type: functional, organism-based
[11] = test system: Mycobacterium tuberculosis; assay: Ratio of isoniazid MIC to compound MIC for Mycobacterium tuberculosis H37Rv ATCC 27294; assay type: functional
[12] = test system: Mycobacterium tuberculosis; assay: Ratio of rifampicin MIC to compound MIC for Mycobacterium tuberculosis H37Rv ATCC 27294; assay type: functional
Staphylococcus aureus [13] = assay: Antibacterial activity against Staphylococcus aureus ATCC 25833 at 200 ug/ml after 24 hr by two-fold serial dilution method; assay type: functional, organism-based
Candida albicans [14] = assay: Antifungal activity against Candida albicans ATCC 3130 at 200 ug/ml after 72 to 96 hr by two-fold serial dilution method; assay type: functional, organism-based
Bacillus subtilis [15] = assay: Antibacterial activity against Bacillus subtilis ATCC 461 at 200 ug/ml after 24 hr by two-fold serial dilution method; assay type: functional, organism-based
Aspergillus niger [16] = assay: Antifungal activity against Aspergillus niger ATCC 591 at 200 ug/ml after 72 to 96 hr by two-fold serial dilution method; assay type: functional, organism-based
Klebsiella pneumoniae [17] = assay: Antibacterial activity against Klebsiella pneumoniae ATCC 15499 at 200 ug/ml after 24 hr by two-fold serial dilution method; assay type: functional, organism-based

SMILES	MIC (Aspergillus flavus [1]) [µg/mL]	MIC (Escherichia coli) [µg/mL]	MIC (Cryptococcus neoformans) [µg/mL]	MIC (Staphylococcus aureus [3]) [µg/mL]	MIC (Rhizopus) [µg/mL]	MIC (Bacillus subtilis [4]) [µg/mL]	MIC [5] [µg/mL]	MIC (Klebsiella pneumoniae [6]) [µg/mL]	MIC (Candida albicans [7]) [µg/mL]	MIC (Aspergillus niger [8]) [µg/mL]	MIC (Salmonella typhi [9]) [µg/mL]	Ratio [11]	Ratio [12]	further results
CCOC(=O)N1CCN(CC(=O)N2C(c3cccc(F)c3)CC(=O)C(C)C2c2cccc(F)c2)CC1 (centres undefined)	100 (≈ 200 µM)	6.25 (≈ 12.5 µM)	12.5 (≈ 25 µM)	50 (≈ 100 µM)	50 (≈ 100 µM)	100 (≈ 200 µM)	> 256	6.25 (≈ 12.5 µM)	6.25 (≈ 12.5 µM)	25 (≈ 50 µM)				Activity (Salmonella typhi [2]): inactive
CCOC(=O)N1CCN(CC(=O)N2C(c3ccc(F)cc3)CC(=O)C(C)C2c2ccc(F)cc2)CC1 (centres undefined)	25 (≈ 50 µM)	100 (≈ 200 µM)	25 (≈ 50 µM)	50 (≈ 100 µM)	100 (≈ 200 µM)	25 (≈ 50 µM)	> 256	12.5 (≈ 25 µM)	25 (≈ 50 µM)	100 (≈ 200 µM)	25 (≈ 50 µM)			
NNC(=O)c1ccncc1 [ISONIAZID]							0.25 (≈ 1.82 µM)							
CCOC(=O)N1CCN(CC(=O)N2C(c3ccc(Cl)cc3)C(C)C(=O)C(C)C2c2ccc(Cl)cc2)CC1 (centres undefined)		100 (≈ 183 µM)	200 (≈ 366 µM)	50 (≈ 91.5 µM)	25 (≈ 45.7 µM)	50 (≈ 91.5 µM)	16 (≈ 29.3 µM)	50 (≈ 91.5 µM)	100 (≈ 183 µM)	50 (≈ 91.5 µM)	25 (≈ 45.7 µM)	1.56	200	Activity (Aspergillus flavus [10]): inactive
CCOC(=O)N1CCN(CC(=O)N2C(c3ccc(C)cc3)CC(=O)C(C)C2c2ccc(C)cc2)CC1 (centres undefined)	200 (≈ 407 µM)	50 (≈ 102 µM)	50 (≈ 102 µM)		200 (≈ 407 µM)	100 (≈ 203 µM)	> 256	100 (≈ 203 µM)	200 (≈ 407 µM)	50 (≈ 102 µM)	200 (≈ 407 µM)			Activity (Staphylococcus aureus [13]): inactive
CCOC(=O)N1CCN(CC(=O)N2C(c3ccccc3)CC(=O)C(C)C2c2ccccc2)CC1 (centres undefined)	200 (≈ 431 µM)	50 (≈ 108 µM)	50 (≈ 108 µM)	100 (≈ 216 µM)	200 (≈ 431 µM)	50 (≈ 108 µM)	> 256	200 (≈ 431 µM)		100 (≈ 216 µM)	100 (≈ 216 µM)			Activity (Candida albicans [14]): inactive
CCOC(=O)N1CCN(CC(=O)N2C(c3ccc(OC)cc3)C(C)C(=O)C(C)C2c2ccc(OC)cc2)CC1 (centres undefined)	100 (≈ 186 µM)	200 (≈ 372 µM)	200 (≈ 372 µM)	100 (≈ 186 µM)	50 (≈ 93 µM)	50 (≈ 93 µM)	16 (≈ 29.8 µM)	100 (≈ 186 µM)		100 (≈ 186 µM)	100 (≈ 186 µM)	1.56	200	
CC1(C)S[C@@H]2[C@H](NC(=O)Cc3ccccc3)C(=O)N2[C@H]1C(=O)O [PENICILLIN G]		12.5 (≈ 37.4 µM)		50 (≈ 150 µM)		12.5 (≈ 37.4 µM)		25 (≈ 74.8 µM)			50 (≈ 150 µM)			
CCOC(=O)N1CCN(CC(=O)N2C(c3cccc(F)c3)C(C)C(=O)C(C)C2c2cccc(F)c2)CC1 (centres undefined)		50 (≈ 97.4 µM)	25 (≈ 48.7 µM)	6.25 (≈ 12.2 µM)	12.5 (≈ 24.3 µM)	12.5 (≈ 24.3 µM)	16 (≈ 31.2 µM)	100 (≈ 195 µM)	100 (≈ 195 µM)	6.25 (≈ 12.2 µM)		1.56	200	Activity (Aspergillus flavus [1]): inactive; Activity (Salmonella typhi [2]): inactive
CCOC(=O)N1CCN(CC(=O)N2C(c3ccccc3)C(C)C(=O)C(C)C2c2ccccc2)CC1 (centres undefined)	100 (≈ 209 µM)	25 (≈ 52.3 µM)	25 (≈ 52.3 µM)	200 (≈ 419 µM)	100 (≈ 209 µM)			50 (≈ 105 µM)	100 (≈ 209 µM)	100 (≈ 209 µM)				Activity (Bacillus subtilis [15]): inactive
CO[C@H]1/C=C/O[C@@]2(C)Oc3c(C)c(O)c4c(O)c(c(/C=N/N5CCN(C)CC5)c(O)c4c3C2=O)NC(=O)/C(C)=C\C=C\[C@H](C)[C@H](O)[C@@H](C)[C@@H](O)[C@@H](C)[C@H](OC(C)=O)[C@@H]1C [RIFAMPIN]							32 (≈ 38.9 µM)							
CCOC(=O)N1CCN(CC(=O)N2C(c3ccccc3)CC(=O)C(CC)C2c2ccccc2)CC1 (centres undefined)	12.5 (≈ 26.2 µM)	25 (≈ 52.3 µM)	25 (≈ 52.3 µM)	200 (≈ 419 µM)	100 (≈ 209 µM)	50 (≈ 105 µM)	16 (≈ 33.5 µM)		12.5 (≈ 26.2 µM)		100 (≈ 209 µM)	1.56	200	Activity (Aspergillus niger [16]): inactive; Activity (Klebsiella pneumoniae [17]): inactive
CCOC(=O)N1CCN(CC(=O)N2C(c3ccc(F)cc3)CC(=O)C(CC)C2c2ccc(F)cc2)CC1 (centres undefined)	100 (≈ 195 µM)	12.5 (≈ 24.3 µM)	100 (≈ 195 µM)	100 (≈ 195 µM)	12.5 (≈ 24.3 µM)	100 (≈ 195 µM)	64 (≈ 125 µM)	12.5 (≈ 24.3 µM)	50 (≈ 97.4 µM)	12.5 (≈ 24.3 µM)	50 (≈ 97.4 µM)	0.39	50	
C[C@@H]1[C@H](O)[C@@H](C)/C=C/C=C/C=C/C=C/C=C/C=C/C=C/[C@H](O[C@@H]2O[C@H](C)[C@@H](O)[C@H](N)[C@@H]2O)C[C@@H]2O[C@](O)(C[C@@H](O)C[C@@H](O)[C@H](O)CC[C@@H](O)C[C@@H](O)CC(=O)O[C@H]1C)C[C@H](O)[C@H]2C(=O)O [AMPHOTERICIN B]	50 (≈ 54.1 µM)		25 (≈ 27.1 µM)		25 (≈ 27.1 µM)				25 (≈ 27.1 µM)	50 (≈ 54.1 µM)				
